The values that follow come from patent publication EP3246445A1, “LIPOXIN A4 DELIVERY SYSTEM BY A POROUS ELECTROSPUN POLYMERIC MEMBRANE” (Universita' Degli Studi G. D Annunzio Chieti - Pescara, priority 2016, dated 2017).

Data set [1] in a line: Release of LXA4 from PEO/PDLLA membranes in PBS, RP-HPLC. It counts as physicochemical. How it is done:
The release of LXA4 from the membrane was evaluated using phosphate-buffered saline solution (PBS) (pH 7.4, at 37°C). Pieces (3 cm x 2.5 cm, ∼33 mg, sample) of membranes, empty or LXA4-loaded, were placed in 100 mm dishes containing PBS (8 mL) and maintained at 37 °C, 5% CO2 and 95% humidity for 1, 3, 18, 48, 72 and 96 h. LXA4 release was assessed by HPLC analysis after solid phase extraction. Following incubation with PBS, membranes were diluted with 2 volumes of cold MeOH and stored at -80°C until extraction. All samples were extracted using C-18 cartridges (Bond Elut Varian, Agilent Technologies, Milan) as previously described (Romano M, Luciotti G, Gangemi S, Marinucci F, Prontera C, D'Urbano E, et al. Urinary excretion of lipoxin A(4) and related compounds: development of new extraction techniques for lipoxins. Laboratory investigation; a journal of technical methods and pathology. 2002;82(9):1253-4). Before extraction, PGB2 (50 ng/sample) was added to each sample as internal standard to calculate extraction recovery. Samples were then taken to dryness using a rotary evaporator, suspended in 10 mL of deionized (dd) H2O containing MeOH, acidified to pH 3.5 and rapidly loaded onto C-18 columns previously equilibrated with MeOH and (dd) H2O. After sample loading, columns were washed with (dd) H2O to restore a neutral pH. Samples were eluted with 7 mL of methyl formate and taken to dryness using a Speedvac apparatus. The dried samples were then suspended in MeOH (100 µl) and injected into an HPLC apparatus (Agilent 1100) equipped reverse phase-HPLC with a Hypersil C-18 column (300 mm x 4 mm x 5 µm, Waters) and a photodiode array detector (Waters) for online UV spectroscopy. LXA4 was identified by UV spectroscopy and considering the chromatographic retention time.
LXA4 releasing from the PEO/PDLLA membranes was investigated by incubating membranes with a PBS solution at pH 7.4 for varying times. LXA4 was quantitated by RP-HPLC. […] The maximum release was observed after 48 h (17%), followed by a progressive decrement at 72 h and 96 h (around 11%). Approximately 25% of LXA4 was recovered as trans isomer, in line with the content of Romano M, Serhan CN. Lipoxin generation by permeabilized human platelets. Biochemistry.

The subject of the next data set is hPDLSCs. The data set is described as follows: Proliferation assay with LXA4 released from PEO/PDLLA membrane. Type of data set: cell-based, Human. The note with it: LXA4 eluted from PEO/PDLLA membranes in PBS. How it is done: Bioptic samples of periodontal ligament were obtained from volunteers aged 20-35 years, exempt from systemic or oral disease, after undesigning the informed consent deed. The study was approved by the Medical Ethic Committee of the "G. D'Annunzio" University, Chieti, Italy (n°266/17.04.14). The periodontal tissue obtained by bioptic samples, grinded and washed several times with PBS (Lonza, Basel, Switzerland) was cultured using TheraPEAK™MSCGM-CD™ BulletKit serum free (MSCGM-CD) medium for the growth of human mesamchimal steam cells (MSCGM-CD) (Lonza), to minimize the exposure to substances of non-human origin. Human periodontal ligament stem cells (hPDLSCs) were obtained and cultured as reported in Trubiani O, Piattelli A, Gatta V, Marchisio M, Diomede F, D'Aurora M, et al. Assessment of an efficient xeno-free culture system of human periodontal ligament stem cells. […]
For the proliferation assay with LXA4 released from PEO/PDLLA membrane, hPDLSCs (2 x 10^3 cells/well) were seeded in 96-well microplates with complete medium overnight at 37 °C and 5%CO2. […] Data were expressed as proliferation index, calculated as the ratio between values from cells exposed to membrane-eluted LXA4 and from cells exposed to vehicle only (ethanol) of LXA4. […]
The proliferation and migration of hPDLSC growth a direct contact with fragment of LXA4-loaded membrane were evaluated. […]

As to `CCCCC[C@H](O)/C=C/C=C\C=C\C=C\[C@@H](O)[C@@H](O)CCCC(=O)O` [LXA4, Lipoxin A4], the LXA4 released entry in data set [1] (PBS pH 7.4, 37 °C, 72 h) was “around 11%”; in data set [1] (PBS pH 7.4, 37 °C, 96 h), “around 11%”. Moreover, the “LXA4 released, maximum release” value in data set [1] (PBS pH 7.4, 37 °C, after 48 h) was found to be 17%. Also, in data set [1] (PBS pH 7.4, 37 °C, within 3 h), the “LXA4 released, of the total LXA4 added to membranes” value is reported as “approximately 15%”. Besides, in data set [1] (of the total LXA4 eluted from the membranes), the “LXA4 recovered as trans isomer” value is listed as “Approximately 25%”. For the same molecule, in the data set on hPDLSCs, the “biological activities on hPDLSCs after release” value was “retained its biological activities on hPDLSCs”.
